Experimental findings from PMC5056396, “Hexokinase I N-terminal based peptide prevents the VDAC1-SOD1 G93A interaction and re-establishes ALS cell viability” (Scientific Reports, 2016) are described below.

One test relates to NSC34-SOD1G93A cells. The experiment in a line: Mitochondrial membrane potential (ΔΨm) by flow cytometry. It is filed as cell-based, mouse. Conditions: TMRM. On the procedure:
To evaluate the NHK1 influence on mitochondrial functionality, mitochondrial membrane potential variation (ΔΨm) was assayed in the presence of NHK1 peptide or HK1. ΔΨm is related to the ATP production by oxidative phosphorylation; therefore, it is considered an indication of good mitochondrial and cellular health. Using mitochondria-targeted fluorescent probes, we estimated in flow cytometry the rate of mitochondrial depolarization. NSC34-SOD1G93A cells shown a high level of depolarized mitochondria compared to NSC34-SOD1WT. […] Similarly to NHK1 peptide, the expression of the whole HK1 reduced the depolarized mitochondria of about 15% (Fig. 7C).
ΔΨm was measured using tetramethyl-rhodamine methyl ester (TMRM) or Rhodamine 123 (RH123) (Molecular Probes) according to the excitation/emission wavelength of the transfection reporter or of the transfected fluorescent protein used. Both probes accumulates in active mitochondria due to their positive charge, whereby the reduction of ΔΨm leads to the release of fluorescent probes. Transfected NSC34-SOD1WT and NSC34-SOD1G93A cells were washed with PBS and incubated for 30 min at 37 °C with Krebs Ringer Buffered Saline supplemented with either 200 nM TMRM or 0.1 μg/mL RH123 and 20 μM Verapamil (as a multi drug-resistant pump inhibitor) (Sigma). Cells were then harvested and immediately analyzed by flow cytometry. Cells were excited by an air-cooled argon 488 nm laser, reading the GFP fluorescence of HK1-GFP or RH123 fluorescence in FL1 log mode; TMRM and mtDsRED used as transfection reporter of NHK1 peptide were read on FL3 log mode. Only viable cells detected by reading the scattering indicated as FSC and SSC, were considered for our analysis. The threshold physiological value of ΔΨm was estimated by using cells exposed to 1 μM of the uncoupling agent FCCP as a negative control. Data reported are representative for three sets of independent experiments, each performed at least in triplicate and based on 20.000 events for each group. Data were statistical analyzed by chi-square test. A p < 0,001 was taken as significant.
(In general: In flow cytometry, cells or beads pass a laser one at a time.)

The subject of test [1] is VDAC1-SOD1 G93A interaction. The experiment in a line: In vitro VDAC1-SOD1 G93A binding assay after pre-incubation with HK1 or peptide (western blot, densitometry). On the set-up: species or system human. The conditions noted are these: for reduction of SOD1 G93A in VDAC1-bound fraction: 6.25 μM SOD1 G93A, n = 3. The source says: It is well known that HKs bind to VDAC1 in physiological conditions. We hypothesized that the available area for interaction with soluble proteins is a limited, exposed portion of the transmembrane pore VDAC1. […] For this reason, we repeated the VDAC1-SOD1 G93A binding assay, adding increasing concentrations of HK1. […] The reduction corresponds to the increase of HK1 in VDAC1-bound fraction, and it is proportional to the HK1 concentrations added in the assay (Fig. 3A).
In order to evaluate the NHK1 ability to interfere with VDAC1-SOD1 G93A interaction, a binding assay was performed. Increasing concentrations of NHK1 were added to immobilized-VDAC1, before SOD1 G93A addition. […] In fact, a 20-fold smaller concentration of peptide was used to obtain a result similar to that obtained by using the whole HK1 in the previous experiment (see Fig. 3A).
Recombinant VDAC1 was immobilized onto Ni-NTA Magnetic Agarose Beads (Qiagen) by exploiting its 6xHis-tag, according with manufacture’s protocol. For each experiment, a large excess of VDAC1 (30 μM) were incubated with 50 μL of beads suspension in Interaction Buffer (IB) (300 mM NaCl, 50 mM NaH2PO4, 20 mM imidazole, pH 8.0) to saturate all sites. Beads were collected using the magnet-based system DynaMag-2 (Life Technologies) and washed twice in Wash Buffer (300 mM NaCl, 50 mM NaH2PO4, 20 mM imidazole, 0.05% Tween-20, pH 6.3) to remove any excess of VDAC1. Beads-immobilized VDAC1 were incubated with 6.25 μM SOD1 WT or G93A, for 1 h at RT, under constant shaking, in 100 μL of IB. The assay was also performed by pre-incubating immobilized-VDAC1 for an extra 1 h with increasing concentration of purified human HK1 (0, 100, 200 μM) or NHK1 peptide (0, 5, 10, 25 μM), before SOD1 G93A addition. Beads were recovered using Dyna-Mag2 system and VDAC1-complexes were eluted from beads using 50 μL of Elution Buffer (300 mM NaCl, 50 mM NaH2PO4, 300 mM imidazole, pH 3.5). Any protein in VDAC1-bound and -unbound fractions was evaluated by western blot. Three independent experiments were performed for each condition tested.
On the technique in general: A western blot detects proteins with antibodies after separation by electrophoresis.

Test [2] relates to human VDAC1 reconstituted into PLB. The experiment in a line: VDAC1 channel conductance in planar lipid bilayer (PLB). It is filed as biochemical. The conditions noted are these: for effect on single channel VDAC1 conductance: +25 mV, 0.2 μM SOD1 proteins or 15 μM peptide; for effect on voltage-dependence of VDAC1, triangular voltage ramps: symmetric 1 M KCl, ramps 0 to ±50 mV. The source says:
Purified VDAC1 was reconstituted into a planar phospholipid bilayer (PLB) and its channel conductance was monitored before and after addition of SOD1 proteins, on cis or trans side of the membrane. […] Moreover, the effect of SOD1 proteins on the voltage-dependence of VDAC1 was monitored by triangular voltage ramps from 0 to ±50 mV. […] The current linearly follows the voltage applied up to about ±25 mV, where VDAC1 decreases its channel conductance through step-like transitions, remaining in low-conducting states.
Under standard experimental condition (1 M KCl and an applied potential of +25 mV) the VDAC1 channel was mainly in low-conducting closed states. […] The effect of NHK1 on the channel conductance is even more evident by plotting the amplitude values obtained in the current traces as a function of the number of events. While for VDAC1 alone the amplitude values appear as a main peak corresponding to the closed states (Fig. 4B), the presence of NHK1 caused a different distribution of events: an additional, different peak corresponding to the open state was visible, together with the closed states peak (Fig. 4C). […] The effect of NHK1 on the voltage-dependence of VDAC1 was monitored by triangular voltage ramps. […] In this experiment, indeed, VDAC1 completely loose, very precociously (already at ±15 mV applied), its ability to linearly respond to the applied voltage: a continuous switch from open to closed states was observed, especially at positive potentials. […] Upon NHK1 incubation, VDAC1 current transitions at positive voltages are very noisy and pass through different sub-conductance states (Fig. 4F).
Purified VDAC1 was reconstituted into a Planar Lipid Bilayer (PLB) apparatus (Warner Instruments, Hamden, CT, USA), previously described. Bilayers were prepared using asolectin (Sigma) dissolved in decane (Sigma) containing 1% chloroform (Sigma) across a 200 μm hole in a derlin cuvette (Warner Instruments). Experiments were performed in 1 M KCl, 10 mM Hepes, pH 7.0[40][46]. Control experiments using empty membrane and/or detergents were performed to avoid activity in any of the above solutions. Data were acquired using a Bilayer Clamp amplifier (Warner Instruments) at 100 μs/point, filtered at 200 Hz and analyzed offline using Clampfit 10.4 program set (Axon Instruments, Union City, CA, USA). Single channel analysis of VDAC1 was performed in presence or not of 0.2 μM of SOD1 WT or G93A, 15 μM NHK1 or ScNHK1 peptide.

For the sequence “IAAQLLAYYFT [NHK1, peptide corresponding to residues 2–12 (N-terminal region) of human HK1 protein (…)]”, the “reduction of depolarized mitochondria” value with NSC34-SOD1G93A cells (NSC34-SOD1G93A expressing peptide, n = 3) stood at 20%. Also, the entries for the “reduction of SOD1 G93A in VDAC1-bound fraction” value in test [1] (10 μM peptide pre-incubated 1 h) and in test [1] (25 μM peptide pre-incubated 1 h) were 40% and 80%, respectively. Also, in test [2] (1 M KCl), the “effect on single channel VDAC1 conductance” value is “induced several fast and reversible events of VDAC1 low-conducting closed states”. In test [2] (1 M KCl, upon peptide incubation), the “negative membrane potential at which regions of decreased slope already appear (I-V plot)” value was −10 mV. For the same sequence, the “effect on voltage-dependence of VDAC1, triangular voltage ramps” value in test [2] is “strongly affected the channel voltage-dependence of VDAC1”.

Regarding “FAQLTIALAYY [ScNHK1, scramble peptide (…) synthetized and used as control, reference compound]”, the “partial recovery of physiological ΔΨm” value with NSC34-SOD1G93A cells (NSC34-SOD1G93A expressing scramble peptide) was “not”. For the same sequence, the “effect on SOD1 G93A in VDAC1-bound fraction” value in test [1] (scramble control, same assay) was “No similar effect”. The “effect on single channel VDAC1 conductance” value in test [2] (1 M KCl) is on record as “No influence on the electrophysiological activity”. Further, in test [2], the “effect on voltage-dependence of VDAC1, triangular voltage ramps” value is reported as “no difference was found”.
